Measured values from PMC11861906, “Structural basis for lipid-mediated activation of G protein-coupled receptor GPR55” (Nature Communications, 2025).

Legend:
Assay type in all cases: cell-based
[1] = target: GPR55 mutant T176A (Gα13) (Homo sapiens, UniProt Q9Y2T6, T176A); test: BRET² G protein dissociation assay, GPR55 T176A with Gα13
Text: (§1) To validate the functionality of the GPR55 cryo-EM construct, we conducted bioluminescence resonance energy transfer 2 (BRET²)-based G protein dissociation assays[46],[47] using an engineered heterotrimeric G13 protein. The N-terminal GFP fusion of the receptor was additionally modified with a G67A mutation to disrupt fluorescence properties. We employed human embryonic kidney (HEK) cells overexpressing wt or mutant GPR55 together with Gβ3, Gγ9-GFP, and Gα13 tagged with Renilla luciferase 8 (Rluc8).
(§2) G protein dissociation assays were performed according to the original protocols of the TRUPATH BRET² assay[47],[87] but with subtle modifications as previously described[61],[88],[89]. All reagents and cells were obtained from Thermo Fisher Scientific unless indicated otherwise. The coding sequences for the G protein biosensors[47] (Gα12-Rluc8, Gα13-Rluc8, wt Gβ3, and Gγ9-GFP), the wt GPR55, the construct used for cryo-EM (with GFP bearing a G67A mutation to disrupt fluorescence properties[48] for BRET² assays), GPR55 binding pocket mutants (G152^4.56F, G152^4.56W, N171^ECL2Q, N171^ECL2A, T176^5.33A, R253^6.62A), and the wt TBXA2R were codon-optimized for Homo sapiens, gene-synthesized, and sub-cloned into pcDNA^TM3.1(+) between NheI and HindIII restriction sites by GeneArt (Thermo Fisher Scientific). […] Freshly grown cells were washed with Dulbecco’s Balanced Salt Solution (DPBS, cat. #14200075) and detached using trypsin-ethylenediaminetetraacetic acid (trypsin-EDTA) (cat. #25300-062). Then, the cells were reconstituted to 500,000 cells per mL with fresh medium, and 1,000,000 cells were seeded into each well of a 6-well plate. After 3 h incubation at 37 °C and 5% CO2, adherent cells were transfected with 600 ng DNA (1:1:1:1 ratio of plasmid DNA for GPR55, wt Gβ3, Gγ9-GFP, and Gα12-Rluc8 or Gα13-Rluc8). Plasmid DNA was mixed with 1.5 µL Lipofectamine^TM 2000 (cat. #11668027) in Opti-MEM^TM medium (cat. #31985062) and incubated for 20 min. Then, the mixture was added to each well of the 6-well plate following 24 h incubation at 37 °C and 5% CO2. Transfected cells were washed with DPBS, detached using EDTA (Versene, cat. #15040066), and reconstituted into fresh medium at 500,000 cells mL^−1. From this suspension, 50,000 cells were seeded into each well of a white-bottom 96-well plate (Nunc^TM MicroWell^TM 96 wells, cat. #136101) following overnight incubation at 37 °C and 5% CO2. Then, the adherent cells were washed with assay medium [Hank’s balanced salt solution (HBSS, cat. #14065056) plus 20 mM HEPES pH 7.4 (cat. #15630056)] and finally reconstituted into 50 µL of the same medium. […] Methoxy e-Coelenterazine was used as luciferase substrate (Prolume Purple, NanoLight Technology, cat. #369), reconstituted at 1 mM in methanol and diluted to 37.5 µM with assay buffer (7.5 µM final assay concentration). The assay was started by the addition of 20 µL luciferase substrate to each well of the assay plate using a Multidrop^TM Combi reagent dispenser (Thermo Fisher Scientific), followed by 5 min incubation at room temperature. Then, 30 µL of agonist dilutions or DMSO control was added (final DMSO concentration 1.5%), followed by an additional 5 min incubation at room temperature. BRET² measurements were performed with a PHERAstar® FSX microplate reader (BMG LABTECH) using a BRET² filter (donor emission 370–450 nm, acceptor emission 500–530 nm) at the maximum fluorescence gain of 3600. BRET² ratios were calculated by dividing GFP emission signals from Rluc8 emission counts. Buffer-DMSO controls were subtracted from each data point to calculate ΔBRET² ratios.

[2] = target: GPR55 mutant G152F (Gα13) (Homo sapiens, UniProt Q9Y2T6, G152F); test: BRET² G protein dissociation assay, GPR55 G152F with Gα13
Text: as §1, §2

[3] = target: GPR55 mutant R253A (Gα13) (Homo sapiens, UniProt Q9Y2T6, R253A); test: BRET² G protein dissociation assay, GPR55 R253A with Gα13
Text: as §1, §2

Sequence of GPR55 mutant R253A (Gα13) (Q9Y2T6 whole entry R253A): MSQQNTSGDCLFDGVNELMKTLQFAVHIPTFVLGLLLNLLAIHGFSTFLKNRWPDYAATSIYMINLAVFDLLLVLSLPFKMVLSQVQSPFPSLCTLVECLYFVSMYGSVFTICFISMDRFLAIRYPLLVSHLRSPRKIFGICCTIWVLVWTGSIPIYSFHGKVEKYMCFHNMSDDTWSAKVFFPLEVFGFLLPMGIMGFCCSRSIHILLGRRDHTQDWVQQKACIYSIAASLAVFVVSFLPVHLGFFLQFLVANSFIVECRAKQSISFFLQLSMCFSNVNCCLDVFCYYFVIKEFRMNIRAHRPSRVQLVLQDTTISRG
Sequence of GPR55 mutant R253A (Gα13) (Q14344 whole entry partner): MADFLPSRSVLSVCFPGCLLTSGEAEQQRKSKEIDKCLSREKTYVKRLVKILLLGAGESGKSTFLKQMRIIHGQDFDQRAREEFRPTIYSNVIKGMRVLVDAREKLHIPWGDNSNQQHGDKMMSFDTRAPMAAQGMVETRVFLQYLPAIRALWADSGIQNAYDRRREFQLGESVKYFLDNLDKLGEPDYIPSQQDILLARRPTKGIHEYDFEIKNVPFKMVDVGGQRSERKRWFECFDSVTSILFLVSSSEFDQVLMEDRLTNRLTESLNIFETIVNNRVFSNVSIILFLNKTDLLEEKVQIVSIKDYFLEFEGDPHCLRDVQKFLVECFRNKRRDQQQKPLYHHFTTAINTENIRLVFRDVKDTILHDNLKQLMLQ
Sequence of GPR55 mutant R253A (Gα13) (P16520 whole entry partner): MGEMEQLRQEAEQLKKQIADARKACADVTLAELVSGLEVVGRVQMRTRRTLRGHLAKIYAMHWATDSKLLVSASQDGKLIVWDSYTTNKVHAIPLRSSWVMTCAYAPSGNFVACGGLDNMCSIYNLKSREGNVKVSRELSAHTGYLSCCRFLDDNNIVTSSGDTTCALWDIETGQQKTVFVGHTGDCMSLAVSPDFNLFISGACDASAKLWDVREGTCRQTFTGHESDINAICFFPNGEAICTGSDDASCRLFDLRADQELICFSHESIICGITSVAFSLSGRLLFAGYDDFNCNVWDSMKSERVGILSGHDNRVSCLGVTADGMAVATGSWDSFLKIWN
Sequence of GPR55 mutant R253A (Gα13) (O14610 1-66 partner limits assumed): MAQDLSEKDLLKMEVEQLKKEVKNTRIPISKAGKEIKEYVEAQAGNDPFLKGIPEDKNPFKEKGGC
Sequence of GPR55 mutant G152F (Gα13) (Q9Y2T6 whole entry G152F): as the sequence (Q9Y2T6 whole entry R253A) above, with G152F, A253R counted along it
Sequence of GPR55 mutant G152F (Gα13) (Q14344 whole entry partner): as the sequence (Q14344 whole entry partner) above
Sequence of GPR55 mutant G152F (Gα13) (P16520 whole entry partner): as the sequence (P16520 whole entry partner) above
Sequence of GPR55 mutant G152F (Gα13) (O14610 1-66 partner limits assumed): as the sequence (O14610 1-66 partner limits assumed) above
Sequence of GPR55 mutant T176A (Gα13) (Q9Y2T6 whole entry T176A, the tested form may be a part): as the sequence (Q9Y2T6 whole entry R253A) above, with T176A, A253R counted along it
Sequence of GPR55 mutant T176A (Gα13) (Q14344 whole entry partner, the tested form may be a part): as the sequence (Q14344 whole entry partner) above
Sequence of GPR55 mutant T176A (Gα13) (P16520 whole entry partner, the tested form may be a part): as the sequence (P16520 whole entry partner) above
Sequence of GPR55 mutant T176A (Gα13) (O14610 1-66 partner limits assumed): as the sequence (O14610 1-66 partner limits assumed) above

## CCCCC[C@H](O)/C=C/[C@@H]1[C@@H](C/C=C\CCCC(=O)O)[C@H]2CO[C@@H]1C2 [U-46619]
[1]; Concentration 10 pM
  Mean (plotted) BRET² response, GPR55-T176A-G13: -0.0049
[1]; Concentration 30 pM
  Mean (plotted) BRET² response, GPR55-T176A-G13: 0.00215
[1]; Concentration 100 pM
  Mean (plotted) BRET² response, GPR55-T176A-G13: 0.0004
[1]; Concentration 300 pM
  Mean (plotted) BRET² response, GPR55-T176A-G13: 0.0002029
[1]; Concentration 1e-9 M
  Mean (plotted) BRET² response, GPR55-T176A-G13: 0.000161
[1]; Concentration 3e-9 M
  Mean (plotted) BRET² response, GPR55-T176A-G13: 0.0002381
[1]; Concentration 1e-8 M
  Mean (plotted) BRET² response, GPR55-T176A-G13: -0.0002172
[1]; Concentration 3e-8 M
  Mean (plotted) BRET² response, GPR55-T176A-G13: 0.0004783
[1]; Concentration 1e-7 M
  Mean (plotted) BRET² response, GPR55-T176A-G13: -0.0003604
[1]; Concentration 3e-7 M
  Mean (plotted) BRET² response, GPR55-T176A-G13: 0.004625
[1]; Concentration 1e-6 M
  Mean (plotted) BRET² response, GPR55-T176A-G13: 0.001082
[1]; Concentration 3e-6 M
  Mean (plotted) BRET² response, GPR55-T176A-G13: -0.0002941
[1]; Concentration 1e-5 M
  Mean (plotted) BRET² response, GPR55-T176A-G13: 0.003133
[1]; Concentration 3e-5 M
  Mean (plotted) BRET² response, GPR55-T176A-G13: 0.0069
[2]; Concentration 10 pM
  Mean (plotted) BRET² response, GPR55-G152F-G13: -0.003
[2]; Concentration 30 pM
  Mean (plotted) BRET² response, GPR55-G152F-G13: 0.00205
[2]; Concentration 100 pM
  Mean (plotted) BRET² response, GPR55-G152F-G13: 0.0008
[2]; Concentration 300 pM
  Mean (plotted) BRET² response, GPR55-G152F-G13: -0.003135
[2]; Concentration 1e-9 M
  Mean (plotted) BRET² response, GPR55-G152F-G13: 0.0004643
[2]; Concentration 3e-9 M
  Mean (plotted) BRET² response, GPR55-G152F-G13: -0.004129
[2]; Concentration 1e-8 M
  Mean (plotted) BRET² response, GPR55-G152F-G13: -0.009075
[2]; Concentration 3e-8 M
  Mean (plotted) BRET² response, GPR55-G152F-G13: -0.001052
[2]; Concentration 1e-7 M
  Mean (plotted) BRET² response, GPR55-G152F-G13: -0.0003089
[2]; Concentration 3e-7 M
  Mean (plotted) BRET² response, GPR55-G152F-G13: -0.001149
[2]; Concentration 1e-6 M
  Mean (plotted) BRET² response, GPR55-G152F-G13: -0.0006267
[2]; Concentration 3e-6 M
  Mean (plotted) BRET² response, GPR55-G152F-G13: -0.009104
[2]; Concentration 1e-5 M
  Mean (plotted) BRET² response, GPR55-G152F-G13: -0.008346
[2]; Concentration 3e-5 M
  Mean (plotted) BRET² response, GPR55-G152F-G13: -0.007499
[3]; Concentration 10 pM
  Mean (plotted) BRET² response, GPR55-R253A-G13: 0.0024
[3]; Concentration 30 pM
  Mean (plotted) BRET² response, GPR55-R253A-G13: 0.00435
[3]; Concentration 100 pM
  Mean (plotted) BRET² response, GPR55-R253A-G13: 0.00475
[3]; Concentration 300 pM
  Mean (plotted) BRET² response, GPR55-R253A-G13: -0.008328
[3]; Concentration 1e-9 M
  Mean (plotted) BRET² response, GPR55-R253A-G13: 0.002391
[3]; Concentration 3e-9 M
  Mean (plotted) BRET² response, GPR55-R253A-G13: 0.002546
[3]; Concentration 1e-8 M
  Mean (plotted) BRET² response, GPR55-R253A-G13: 0.001532
[3]; Concentration 3e-8 M
  Mean (plotted) BRET² response, GPR55-R253A-G13: 0.002853
[3]; Concentration 1e-7 M
  Mean (plotted) BRET² response, GPR55-R253A-G13: 0.0008838
[3]; Concentration 3e-7 M
  Mean (plotted) BRET² response, GPR55-R253A-G13: -0.0001645
[3]; Concentration 1e-6 M
  Mean (plotted) BRET² response, GPR55-R253A-G13: -0.0002602
[3]; Concentration 3e-6 M
  Mean (plotted) BRET² response, GPR55-R253A-G13: -0.001768
[3]; Concentration 1e-5 M
  Mean (plotted) BRET² response, GPR55-R253A-G13: -0.005378
[3]; Concentration 3e-5 M
  Mean (plotted) BRET² response, GPR55-R253A-G13: -0.00746
